Measured values as given in publication PMC8783508, “A novel D-amino acid peptide with therapeutic potential (ISAD1) inhibits aggregation of neurotoxic disease-relevant mutant Tau and prevents Tau toxicity in vitro” (Alzheimer's Research & Therapy, 2022).
Non-standard residues stand in square brackets, D forms with d. Residues, ends and D or L forms follow the SMILES beside them.

Assays:
[1] = DLS of D-peptides alone with heparin; type: physicochemical; conditions: 100 μM D-peptide, 2.5 µM heparin 16000, 24 hours
Procedure: After the ThS assay (end time point, 24 h), the samples were used for DLS measurements. Twenty microliters of the sample was placed in a quartz batch cuvette (ZEN2112) and the measurement was performed at 25 °C in a Zetasizer Nano S instrument (Malvern Instruments, Herrenberg, Germany). The sample was thermally equilibrated at 25 °C for 2 min. The mean value of the intensities of an individual sample was determined over 3 measurements with 15 runs each. Analysis and averaging of the collected data were performed with the Zetasizer software 7.11 (Malvern Instruments, Herrenberg, Germany) and the result is represented as a volume graph. Tau^RDΔK fibrils (Tau+heparin) formed in the absence of D-peptides was used as a positive control.
100 μM of D-peptides and 2.5 µM of heparin 16000 (H16K) were incubated together for 24 hours and measured by DLS.

N2a-Tau^RDΔK cells = assay: MTT, intracellularly expressed Tau^RDΔK (Dox induced); type: cell-based; conditions: 1 μg/ml doxycycline, 72 h, n = 2
Procedure: After the N2a-Tau^RDΔK cells reached the desired confluence (25,000 cells/well or 80%), intracellular Tau^RDΔK expression was induced by the addition of 1 μg/ml Dox. The cells were plated on poly D-lysine-coated 96-well plates (Greiner Bio-One GmbH, Frickenhausen, Germany) and treated with ISAD1 and ISAD1rev in a concentration range of 25 to 250 μM. TritonX-100 (2%) was used as a positive control. The incubation and Tau^RDΔK expression time was 72 h. Following incubation, cell viability was studied by measuring MTT and LDH release in accordance with the manufacturer’s protocol.

Tau^FLΔK = molecular target: T1, Tau^FLΔK (Homo sapiens, UniProt P10636, DEL597-597); assay: Fibrillization of Tau^FLΔK monitored by ThS assay; type: biochemical; conditions: Tau:peptide = 1:1; 1:5; 1:10
T1 construct: Tau^FLΔK Full-length Tau mutant ΔK280
Procedure: For Tau fibrillization inhibition assays, 10 μM Tau mutant protein (Tau^RDΔK, Tau^FLΔK, Tau^FL-A152T, Tau^FL-P301L) was incubated in BES buffer (N,N-bis(2-hydroxyethyl)-2-aminoethanesulfonic acid, pH 7) in the presence of 2.5 μM heparin at 37 °C for 24 h with and without novel D-peptides (ISAD1 and ISAD1rev) at different concentrations (1 nM to 200 μM). Final concentration of 20 μM ThS was used for monitoring fibrillization. The assay was performed with 40-μl sample volume per well in a 384-well microtiter plate (Thermo LabSystems, Dreieich, Germany). The fibrillization of Tau was monitored by ThS and the relative fluorescence intensity of ThS was read out at 440 excitation/521 emission nm in a Tecan micro titer plate reader (Tecan, Männedorf, Switzerland).

T1 sequence (P10636 with tags, fused parts or gaps isoform P10636-8 DEL280-280): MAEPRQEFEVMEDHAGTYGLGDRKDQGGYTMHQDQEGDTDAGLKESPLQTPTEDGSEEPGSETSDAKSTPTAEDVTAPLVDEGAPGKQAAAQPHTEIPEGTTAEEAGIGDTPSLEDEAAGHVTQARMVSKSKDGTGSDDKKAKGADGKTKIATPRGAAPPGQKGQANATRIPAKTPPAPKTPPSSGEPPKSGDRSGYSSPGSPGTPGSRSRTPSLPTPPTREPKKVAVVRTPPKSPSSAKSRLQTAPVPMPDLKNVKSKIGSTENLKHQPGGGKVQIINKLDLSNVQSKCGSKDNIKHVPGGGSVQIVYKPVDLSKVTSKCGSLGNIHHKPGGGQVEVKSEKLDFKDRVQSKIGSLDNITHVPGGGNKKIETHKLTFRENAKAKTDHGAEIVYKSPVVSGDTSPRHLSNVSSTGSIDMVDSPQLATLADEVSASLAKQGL

For `CC(C)C[C@@H](NC(=O)[C@@H](CO)NC(=O)[C@@H](CC(C)C)NC(=O)[C@H](NC(=O)[C@@H](CC(=O)O)NC(=O)[C@@H](C)NC(=O)[C@@H](C)NC(=O)[C@H](N)CO)[C@H](C)O)C(=O)N[C@H](CCCCN)C(=O)N[C@H](Cc1ccccc1)C(=O)N[C@@H](C(=O)N[C@H](CO)C(=O)O)C(C)C` [ISAD1rev] (H-[dS][dA][dA][dD][dT][dL][dS][dL][dK][dF][dV][dS]-OH; N-terminus and C-terminus assumed), the “Particle size of peptide alone in the presence of heparin (DLS)” value [1] was less than 2 nm, the “Cell viability at 50 μM peptide” value (N2a-Tau^RDΔK cells) was “no increase in cell viability” and the “Inhibition of Tau^FLΔK fibrillization, in words” value (Tau^FLΔK) was “weak inhibitory effects”.
